The assay concerns the target T1, ASIC1a (Homo sapiens, UniProt P78348).
T1 sequence (P78348 1-528): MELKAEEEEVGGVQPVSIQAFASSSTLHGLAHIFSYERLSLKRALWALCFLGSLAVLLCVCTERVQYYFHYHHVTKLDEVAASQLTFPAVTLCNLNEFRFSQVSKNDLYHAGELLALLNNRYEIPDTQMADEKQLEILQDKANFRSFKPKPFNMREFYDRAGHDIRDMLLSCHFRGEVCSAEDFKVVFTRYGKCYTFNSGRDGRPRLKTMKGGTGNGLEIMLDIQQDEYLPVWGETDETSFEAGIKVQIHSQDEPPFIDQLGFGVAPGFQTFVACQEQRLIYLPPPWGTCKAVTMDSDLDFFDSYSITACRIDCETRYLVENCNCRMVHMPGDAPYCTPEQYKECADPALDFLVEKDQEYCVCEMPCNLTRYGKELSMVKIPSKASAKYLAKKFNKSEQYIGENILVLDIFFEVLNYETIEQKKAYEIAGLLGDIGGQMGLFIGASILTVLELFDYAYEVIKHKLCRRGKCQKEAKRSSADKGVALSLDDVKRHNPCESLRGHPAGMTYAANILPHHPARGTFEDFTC
In words: Two-electrode voltage clamp of acid-induced currents in Xenopus laevis oocytes. In kind it is cell-based. More on the design: expressed in transfected cells; host or cells: Xenopus laevis oocytes, nuclear microinjection of an expression vector such as pCDNA3. The settings on record: 50 μM, Xenopus oocytes; read-out: % inh. at 50 μM (Xo). The protocol:
Screening and Bioanalysis of ASIC Antagonists in Xenopus laevis oocytes
This example describes the in vitro assessment of the activity of the compounds of the present invention.
Two-electrode voltage clamp electrophysiological assays in Xenopus laevis oocytes expressing gated ion channels are performed as follows:
Oocytes are surgically removed from adult Xenopus laevis and treated for 2 h at room temperature with 1 mg/ml type I collagenase (Sigma) in Barth's solution under mild agitation. Selected oocytes at stage IV-V are defolliculated manually before nuclear microinjection of 2.5-5 ng of a suitable expression vector, such as pCDNA3, comprising the nucleotide sequence encoding a gated ion channel subunit protein. In such an experiment, the oocytes express homomultimeric proton-gated ion channels on their surface. In an alternate experiment, one, two, three or more vectors comprising the coding sequences for distinct gated ion channel subunits are co-injected in the oocyte nuclei. In the latter case, oocytes express heteromultimeric proton-gated ion channels. For example, ASIC2a and/or ASIC3 subunits in pcDNA3 vector are co-injected at a 1:1 cDNA ratio. After 2-4 days of expression at 19° C. in Barth's solution containing […] gentamicin and 1.8 mM CaCl2, gated ion channels are activated by applying an acidic solution (pH<7) and currents are recorded in a two electrode voltage-clamp configuration, using an OC-725B amplifier (Warner Instruments). Currents are acquired and digitized at 500 Hz on an Apple Imac G3 computer with an A/D NB-MIO-16XL interface (National Instruments) and recorded traces are post-filtered at 100 Hz in Axograph (Axon Instruments) (Neher, E. and Sakmann, B. (1976) Nature 260:799-802). Once impaled with the microelectrodes, oocytes are continuously superfused at 10-12 ml/min with a modified Ringer's solution containing 97 mM NaCl, 2 mM KCl, 1.8 mM CaCl2, and 10 mM HEPES brought to pH 7.4 with NaOH (Control Ringer). Test Ringer solution is prepared by replacing HEPES with MES and adjusting the pH to the desired acidic value. Compounds of the present invention are prepared in both the Control and Test Ringer solutions and applied to oocytes at room temperature through a computer-controlled switching valve system. Osmolarity of all solutions is adjusted to 235 mOsm with choline chloride. Similarly, recordings can also be acquired in an automated multichannel oocytes system as the OpusExpress™ (Molecular Devices, Sunnyvale, USA).
FIGS. 1A and 2A illustrate the inhibitory effects of Compounds 12 and 44 on acid-induced activation of recombinant homomeric hASIC1a channels. FIGS. 1A and 2A show the dose-dependent inhibition of the acid-induced hASIC1a currents recorded from Xenopus laevis oocytes using the two-electrode voltage clamp method (as described in this example) in the absence or presence of increasing concentration of the compounds.

Structures are written as SMILES.

With `CCN1CCc2c(-c3cc(F)ccc3OC)ccc(NCC(=O)OC)c2C1` [Compound 2, [2-Ethyl-5-(5-fluoro-2-methoxy-phenyl)-1,2,3,4-tetrahydro-isoquinolin-8-ylamino]-acetic acid methyl ester], the inhibition at 50 µM is less than 20%. Then `COc1ccc(F)cc1-c1cc(-c2noc(=O)[nH]2)c(N)c2c1CCN(C)C2` [Compound 5, 3-[8-Amino-5-(5-fluoro-2-methoxy-phenyl)-2-methyl-1,2,3,4-tetrahydro-isoquinolin-7-yl]-4H-[1,2,4]oxadiazol-5-one], with less than 20%. In the case of `CCN1CCc2c(-c3ccccc3)cc(C#N)c(NC(C)=O)c2C1` [Compound 8, N-(7-Cyano-2-ethyl-5-phenyl-1,2,3,4-tetrahydro-isoquinolin-8-yl)-acetamide] it was 20 to 30%; in that of `CCN1CCc2c(-c3ccccc3)cc(C#N)c(NS(C)(=O)=O)c2C1` [Compound 9, N-(7-Cyano-2-ethyl-5-phenyl-1,2,3,4-tetrahydro-isoquinolin-8-yl)-methanesulfonamide], 15 to 25%. In the case of `CCN1CCc2c(-c3ccccc3)cc(C#N)c(NC(=O)CC(=O)OC)c2C1` [Compound 14, N-(7-Cyano-2-ethyl-5-phenyl-1,2,3,4-tetrahydro-isoquinolin-8-yl)-malonamic acid methyl ester] it was 20 to 30%. On to `CCN1CCc2c(-c3cc(F)ccc3OC)ccc(N3C(=O)CNC3=O)c2C1` [Compound 22], for which the inhibition at 50 µM was less than 20%.

In the case of `CCN1CCc2c(-c3cc(F)ccc3OC)ccc(NC(N)=O)c2C1` [Compound 23], the inhibition at 50 µM fell in the range of 20 to 30%. Turning to `CCOC(=O)CNC(=O)Nc1ccc(-c2cc(F)ccc2OC)c2c1CN(CC)CC2` [Compound 24], the inhibition at 50 µM lay within 20 to 30%. In the case of `CCN1CCc2c(-c3cc(F)ccc3OC)ccc(N3CC(=O)NC3=O)c2C1` [Compound 25] it was greater than 40%. Then `CCN1CCc2c(-c3cc(F)ccc3OC)ccc(NC(=O)NC(=O)N3C(=O)CN(c4ccc(-c5cc(F)ccc5OC)c5c4CN(CC)CC5)C3=O)c2C1` [Compound 26], with greater than 30%. In the case of `CCN1CCc2c(-c3cc(F)ccc3OC)ccc(NC=O)c2C1` [Compound 27] it was less than 20%; in that of `CCN1CCc2c(cc(N3C(=O)CNC3=O)cc2-c2cc(F)ccc2OC)C1` [Compound 28], 20 to 30%; in that of `CC(=O)N1CCc2c(-c3ccccc3)cc(C#N)c(N)c2C1` [Compound 29], 20 to 30%.

On to `N#Cc1cc(-c2ccccc2)c2ccncc2c1N` [Compound 30], for which the inhibition at 50 µM lay within 20 to 30%. For the molecule `Cc1cc2c(N)c(C#N)cc(-c3ccccc3)c2cn1` [Compound 31], the inhibition at 50 µM is greater than 30%. Take `Cc1cc2c(N)c(-c3ccccc3)cc(C#N)c2cn1` [Compound 32]: the inhibition at 50 µM was greater than 30%. In the case of `CCN1CCc2c(-c3ccccc3)cc(/C(N)=N/O)c(N)c2C1` [Compound 33] it was greater than 30%; in that of `CCN1CCc2c(-c3cc(F)ccc3OC)ccc(NC)c2C1` [Compound 34], greater than 40%. In the case of `CCN1CCc2c(-c3ccccc3)ccc(N)c2C1` [Compound 35] it was 20 to 30%; in that of `CCN1CCc2c(-c3ccccc3)cc(-c3ccccn3)c(N)c2C1` [Compound 36], less than 20%.

On to `CCN1CCc2c(-c3ccccc3)cc(-c3cnccn3)c(N)c2C1` [Compound 37], for which the inhibition at 50 µM is greater than 30%. In the case of `CCN1CCc2c(-c3ccccc3)cc(-c3cnn(C)c3N)c(N)c2C1` [Compound 38] it was greater than 30%; in that of `CCN1CCc2c(-c3ccccc3)cc(-c3ccc(C)nn3)c(N)c2C1` [Compound 39], 20 to 30%. On to `CCN1CCc2c(-c3ccccc3)cc(-c3cccc(C)n3)c(N)c2C1` [Compound 40], for which the inhibition at 50 µM was greater than 30%. In the case of `CCN1CCc2c(cc(C#N)cc2-c2ccccc2)C1` [Compound 41] it was greater than 30%; in that of `CCN1CCc2c(-c3ccccc3)cc(C#N)c(O)c2C1` [Compound 42], 20 to 30%; in that of `CCN1CCc2c(-c3ccccc3)cc(Br)c(N)c2C1` [Compound 46], greater than 40%. In the case of `CCN1CCc2c(-c3cc(C)ccc3C)cc(C#N)c(N)c2C1` [Compound 47] it was greater than 40%; in that of `CCN1CCc2c(-c3ccccc3)cc(Br)c(N(C)C)c2C1` [Compound 49], 20 to 30%. In the case of `CCN1CCc2c(-c3ccccc3)cc(C#N)c([N+](=O)[O-])c2C1` [Compound 51] it was 20 to 30%; in that of `CCN1CCc2c(-c3ccccc3)cc(C#N)c(Cl)c2C1` [Compound 52], 25 to 35%; in that of `CCN1CCc2c(-c3ccccc3)cc(C#N)c(N3CCCC3)c2C1` [Compound 53], greater than 40%. For `CCN1CCc2c(-c3cccnc3)cc(C#N)c(N)c2C1` [Compound 54], the inhibition at 50 µM is greater than 50%. In the case of `CCN1CCc2c(-c3ccncc3)cc(C#N)c(N)c2C1` [Compound 55] it was less than 20%. Then `CCN1CCc2c(-c3ccccc3)cc(C#N)c(N(S(C)(=O)=O)S(C)(=O)=O)c2C1` [Compound 56], with less than 20%; and `CCN1CCc2c(-c3ccccc3)cc(C#N)c(NC(=O)C(=O)OC)c2C1` [Compound 57], with less than 20%; and `CCN1CCc2c(-c3ccccc3)cc(C#N)c(N3C(=O)CCC3=O)c2C1` [Compound 58], with 20 to 30%.

For the molecule `CCN1CCc2c(-c3ccccc3)cc(C#N)c(-n3cccc3)c2C1` [Compound 59], the inhibition at 50 µM is greater than 50%. In the case of `CCN1CCc2c(-c3ccccc3)cc(C#N)c(-c3cccnc3)c2C1` [Compound 60] it was 45 to 55%. Turning to `CCN1CCc2c(-c3ccccc3)cc(C#N)c(Br)c2C1` [Compound 61], the inhibition at 50 µM is greater than 30%. In the case of `CCN1CCc2c(-c3ccccc3)cc(C#N)c(-c3cnn(C)c3)c2C1` [Compound 62] it was greater than 30%.

For the origin of these results see patent US20080004282A1, “Compositions and methods for modulating gated ion channels” (PainCeptor Pharma Corporation, priority 2006, published 2008).
